# Laboratory results from patent publication US6653346B1, “Cytoprotective benzofuran derivatives” (Galileo Pharmaceuticals, Inc., priority 2002, dated 2003).
# Tested on: CRP in Hep3B cells
# Assay: Human Hep3B cells - CRP assay (CRP ELISA)
# Format: cell-based
# Conditions: 72 h, Hep3B cells stimulated with IL-1β, IL-6 and dexamethasone, three days, read-out: EC50 for reducing CRP levels
# Description: Hep3B Cell Line is obtained from the American Type Culture Collection (ATCC Catalog No. HB-8064). The Hep3B cell line was derived from liver tissue of […]. The cells are epithelial in morphology and produce tumors in nude mice. The cells produce α-fetoprotein, hepatitis B surface antigen, albumin, α-2-macroglobulin, α-1-antitrypsin, transferrin, plasminogen, complement C3 and β-lipoprotein (Knowles BB, et al., Science, 1980, 209:497-499). This cell line has been widely used to study hepatocyte cytokine and acute phase protein release (e.g., Damtew B, et al.,1993, J Immunol 150:4001-4007).
# HEP3B cells are grown in Minimum Essential Medium (MEM; GIBCO) supplemented with 10% Fetal Bovine Serum (FBS; Hyclone), 1×Penicillin/Streptomycin (GIBCO, Cat #15140-122) and 0.1 mM non-essential amino acids (GIBCO, Catalog No. 11140-050). Cells are thawed and transferred to warm medium according to standard methods known in the art.
# Cells are incubated in flasks at 37° C. with 5% CO2 in an air atmosphere incubator. HEP3B growth media is changed every 2 days until the cells reach 70-80% confluence (approx. 3-4 days). For assay, the cells are transferred to 96-well plates, seeded at 5000 cells per well in culture media, and left to grow for 7 days in a 37° C. incubator (air supplemented with 5% CO2). Media is replaced daily until assay. Test compounds are diluted into “Stimulus Buffer” (MEM medium containing 0.1 mM non-essential amino acids, 1×penicillin/streptomycin, 10% FBS with 10 ng/ml IL-1β, 20 ng/ml IL-6 and 1 μM dexamethasone. Media is removed from the cells and is replaced with 200 μl of test dilution. Cells are returned to the incubator for three days at 37° C. CRP ELISA is then performed on supernatant from the cells, as described below.
# Costar EIA/RIA plates are coated with rabbit anti-human CRP (DAKO) diluted 1:4000 in carbonate buffer (100 μl/well) for 45 minutes at 37° C. Plates are then washed 5×with CRP washing buffer (50 mM Tris-HCl, 0.3M NaCl, […], pH 8.0) using an automatic plate washer. Plates may be dried, covered and refrigerated until use. Supernatant (100 μl) is removed from each well of the test plates and added to the corresponding well of a precoated ELISA plate.
# 100 μl HRP-conjugated rabbit anti-human CRP (DAKO) diluted 1:500 (in CRP wash buffer) is added to each well, followed by incubation for 30 minutes at 37° C. Plates are washed 5× with CRP washing buffer using the automatic plate washer. 200 μl of 3,3′,5,5′-Tetramethyl Benzidine (TMB) liquid Substrate System (Sigma, St. Louis, Mo.) is added to each well, followed by incubation in the dark for 15 minutes at room temperature. Finally, 50 μl of 1 M H2SO4 is added to each well and absorbance at 450 nm is immediately measured in a microtiter spectrophotometer.
# CRP measured as above is normalized to cell count per well, using a cell viability assay, such as the Cell Tracker Green assay. To do this, the remainder of the medium is from the cell test plates, cells are washed with 200 μl of pre-warmed 1×Hanks Basic Salt Solution (HBSS; GIBCO), and 100 μL of 5 μM Cell Tracker Green (Molecular Probes, Eugene, Oreg.) is added to each well. Plates are then incubated at 37° C. for 30 minutes. Cells are then washed twice with prewarmed 1×HBSS. Plates are immediately read using a Fluoroskan® flourometer with a 485 excitation/538 emission filter pair.
row,Compound,EC50 [µM]
1,"Cc1c(O)cc2c(-c3ccccc3)coc2c1C [6,7-Dimethyl-3-phenyl-benzofuran-5-ol]",10 to 40
2,"Cc1c(C)c2occ(-c3ccccc3)c2c2c(-c3ccccc3)coc12 [4,5-Dimethyl-1,8-diphenyl-benzo[1,2-b;4,3-b′]difuran]",10 to 40
3,"Cc1c(O)cc2cc(C3(O)CN(C)CCO3)oc2c1C (stereo not shown) [2-(5-Hydroxy-6,7-dimethyl-benzofuran-2-yl)-4-methyl-morpholin-2-ol]",10 to 40
4,"COc1ccc(-c2coc3c(C)c(C)c(O)cc23)cc1 [3-(4-Methoxy-phenyl)-6,7-dimethyl-benzofuran-5-ol]",10 to 40

# The next lines start with the values.
row,EC50 [µM],Compound
1,10 to 40,"CC(=O)c1cc2cc(O)c(C)c(C)c2o1 [1-(5-Hydroxy-6,7-dimethyl-benzofuran-2-yl)ethanone]"
2,10 to 40,"Cc1c(O)cc2cc(C(=O)CN3CCOCC3)oc2c1C [1-(5-Hydroxy-6,7-dimethyl-benzofuran-2-yl)-2-morpholin-4-yl-ethanone]"
3,10 to 40,"CC(=O)c1oc2c(C)c(C)c(O)cc2c1Br [1-(3-Bromo-5-hydroxy-6,7-dimethyl-benzofuran-2-yl)-ethanone]"
